Data as given in patent US10494410B2, “Inhibitor Peptides of ERK-type MAP kinase” (Universite Pierre Et Marie Curie, priority 2005, dated 2019).
Ends that are not written are not given here.

What was measured:
[1] = test system: HEK293 cells; experiment: Cell penetration and intracellular localization of FITC-coupled peptide in HEK293 cells (fluorescence, Hoechst nuclei); type: cell-based; settings: unlabeled peptide, statement in Example 1; cells not specified
Method: HEK293 cells are placed in the presence of the peptide F2 at various concentrations (1 mM stock solution in distilled water, then dilutions to 25, 50 and 100 μM in DMEM culture medium), for 15, 30 or 60 minutes, continuously. The cell nuclei are labeled using Hoechst dye (left panel), and the peptide F2 is visualized by means of the FITC label (middle panel). […] The labeled cell nuclei are shown on the left panels, the peptide F2 on the middle panels and the superimposition of these two labelings is represented on the right panels (panels marked fusion).
HEK293 cells are placed in the presence of the peptide F1 at various concentrations (1 mM stock solution in distilled water, then dilutions to 25, 50 and 100 μM in
DMEM culture medium) for 15, 30 or 60 minutes, continuously. The cell nuclei are labeled using Hoechst dye, and the peptide F1 is visualized by means of the FITC label.

[2] = test system: Elk-1; experiment: Serum-induced P-Elk-1 in HEK cells, immunocytochemistry; type: cell-based; settings: peptide 10 μM for 40 minutes, serum 20 minutes
Method: HEK cells are placed in the presence of the peptide P2 (FIG. 4, middle panels) or P1 (FIG. 4, right panels), at the concentration of 10 μM for 40 minutes. Nontreated cells (without peptide) are used as controls (FIG. 4, left panels).
The cells are then treated for 20 minutes using fetal calf serum (serum) in order to activate the MAP kinase/ERK pathway.
The corresponding nuclei are visualized by means of the same star on the panels of the third line, marked Hoechst.

GRKKRRQRRRCCTLWQFLLHLLLDSPAKLSFQFPSGSAQVHI (sequence which inhibits the interaction between Elk 1 and ERK) [Peptide P1, HIV-TAT penetrating peptide, CC cleavage site, NES of Net, FXFP docking domain of Elk-1]
cell penetration [1]: penetrates into the cells | induction of P-Elk-1 (phosphorylation of Elk-1) in response to serum [2]: not and also in the presence of serum and of the peptide P1

GRKKRRQRRRPPSPAKLSFQFPSGSAQVHI [Peptide P2]
cell penetration [1]: penetrates into the cells
